Columns and labels:
[1] = system: carbon tetrachloride-induced SD rat models of liver fibrosis; assay: In vivo pharmacodynamic study on carbon tetrachloride-induced rat models of liver fibrosis; parameters: species or system SD rats
Text: • 1) Animals: SD rats, specific pathogen-free (SPF) grade, male, aged 7 to 8 weeks at the time of grouping, with 10 mice per group. The animals were supplied by Beijing HFK Bioscience Co., Ltd. • 2) Reagents, positive drugs, and test drugs • A. Reagents
• B. Positive Drug: Pirfenidone, Supplied by Biochempartner. • C. Test Drug: compound I, supplied by Guangzhou JOYO Pharmatech Co., Ltd. • 3) Modeling method
Intraperitoneal injection method of carbon tetrachloride: After the adaptation period inspection and observation were qualified, experimental animals were screened by body weight and randomly divided into a normal control group and a model induction group. Starting on the first day of grouping, animals in the model induction group were intraperitoneally injected with a 20% carbon tetrachloride solution dissolved in corn oil, at a modeling frequency of twice a week for six consecutive weeks. After two weeks of carbon tetrachloride induction, animals in the model induction group were randomly subdivided a second time into 5 experimental groups based on their alanine transaminase (ALT) levels (with body weight used as a calibration factor), including the model control group, positive drug treatment group, test compound low dose treatment group, test compound medium dose treatment group, and test compound high dose treatment group. Animals in the normal control group were administered the corresponding vehicle. The experimental period lasted for 6 weeks, during which all animals were given normal access to water and food. • 4) Grouping and administration info
• a: The test compound vehicle was an aqueous solution of 0.5% (w/v) methylcellulose and 0.2% (v/v) Tween 80. • b: An aqueous solution of 0.5% (w/v) methylcellulose and 0.2% (v/v) Tween 80 was used as the vehicle and prepared to the required concentration. • 5) Endpoint sample collection, histopathological analysis, and hydroxyproline content analysis. • A. After euthanizing the animals with pentobarbital sodium anesthesia, the liver was excised and rinsed with normal saline. The liver was divided into three segments: the large lobe, the left lobe, and the right-middle lobe. The large lobe tissue was quickly frozen in liquid nitrogen and stored in a −80° C. refrigerator for measuring the total hydroxyproline levels of animal liver samples in each group. The tissues of left lobe and right-middle lobe of liver were fixed in 10% formaldehyde, embedded in paraffin, and sectioned into 3 μm-thick slices. These slices were then deparaffinized in xylene, rehydrated through a graded ethanol series, subjected to Sirius Red staining, dehydrated, cleared, sealed, and observed under a microscope to capture histopathological changes. Routine tissue freezing was performed. • B. Analysis of fibrosis levels in liver tissue sections;
Based on Sirius Red staining results of liver sections, 1) fibrosis staging was scored according to the scoring criteria listed in Table 3; 2) using Image J, the liver fibrotic area and the total sample area of animals in each experimental group were counted to calculate the collagen volume fraction (CVF %) for each sample. • C. Detection of hydroxyproline levels in liver
The liver large lobe samples were processed according to the instructions using the hydroxyproline detection kit. The total hydroxyproline levels in the liver samples of animals in each group were detected.

[2] = system: TNBS-induced SD rat models of chronic colitis with intestinal fibrosis; assay: Pharmacodynamic experiment of TNBS-induced rat models of chronic colitis with intestinal fibrosis; type: in vivo, SD rats
Text: • 1) Animals: SD rats, specific pathogen-free (SPF) grade, male, aged 7 to 8 weeks at the time of grouping, with 10 rats per group. The animals were supplied by Beijing HFK Bioscience Co., Ltd. • 2) Reagents, positive drugs, and test drugs • A. Reagents
• B. Positive Drugs: Sulfasalazine Colon-Soluble Capsules, Supplied by Guangdong Qiangji Pharmaceutical Co., Ltd. • C. Test Drug: Compound I, Supplied by Guangzhou JOYO Pharmatech Co., Ltd. • 3) Modeling method
TNBS two-enema method: After the adaptation period inspection and observation were qualified, experimental animals were screened by body weight and randomly divided into six experimental groups based on body weight. The groups included a normal control group, a model control group, a positive drug treatment group, a test compound low dose treatment group, a test compound medium dose treatment group, and a test compound high dose treatment group, with 10 rats in each group. On the day of grouping, animals in the normal control group were administered 50% ethanol solution via enema, while animals in the other groups were administered TNBS ethanol solution via enema. The dose of TNBS was 30 mg per animal, with the induction of the model performed twice at a frequency of once every two weeks. The experimental period lasted for 4 weeks, during which all animals were given normal access to water and food. • 4) Grouping and administration
The Disease Activity Index (DAI) scoring was performed on each group of experimental animals based on indicators such as animal body weight, stool morphology and characteristics, and occult blood or hematochezia. Scoring was performed after model induction, once a day for 10 consecutive days, for a total of 2 rounds.
Note: The DAI score was performed based on the percentage of body weight loss, stool morphology, and progression of blood in the stool. Statistical analysis was conducted comprehensively using these three scoring indicators. • 6) Endpoint sample collection, histopathological analysis, and hydroxyproline content analysis • A. After euthanizing the animals with pentobarbital sodium anesthesia, the colon, i.e., the segment from the end of cecum to the anus, was excised. The intestinal segment was flushed with normal saline, and the entire colon was evenly divided into upper, middle, and lower segments. The middle segment of the colon was further divided, with part of the tissue quickly frozen in liquid nitrogen and stored in a −80° C. refrigerator for measuring the total hydroxyproline levels in the middle segment samples of the colon of animals in each group. The remaining middle segment tissue was fixed in 10% formaldehyde, embedded in paraffin, and sectioned into 3 μm-thick slices. These slices were then deparaffinized in xylene, rehydrated through a graded ethanol series, subjected to H&E staining and Masson staining, dehydrated, cleared, sealed, and observed under a microscope to capture histopathological changes. Routine tissue freezing was performed. • B. Histopathological analysis
• a: Based on the Masson staining results, the area of collagen staining-positive regions and the total area of samples from the middle segment samples of the colon (submucosa and muscularis) of animals in each experimental group were statistically analyzed using Image J to calculate the collagen volume fraction (CVF %) of each sample. • C. Detection of hydroxyproline levels in the colon
The middle segment samples of the colon were processed according to the instructions, using the hydroxyproline detection kit. The total hydroxyproline levels in the middle segment samples of the colon of animals in each group were measured.

[3] = sulfasalazine 50 mg/kg twice a day for 4 weeks, colon middle segment, model control 2.00 ± 0.00
[4] = sulfasalazine 50 mg/kg twice a day, relative to model control group

SMILES | Liver fibrosis score (points) ([1]; pirfenidone 150 mg/kg oral gavage twice a day for 4 weeks, Sirius Red staining, model control 4.90 ± 0.88) | Liver CVF (%) ([1]; pirfenidone 150 mg/kg twice a day for 4 weeks, model control 8.75 ± 2.39, normal 1.24 ± 0.23) | Liver HYP content ([1]; pirfenidone 150 mg/kg twice a day for 4 weeks, model control 702.84 ± 173.44, normal 307.30 ± 78.13) [µg/g] | Liver histopathological improvement under light microscope ([1]; pirfenidone 150 mg/kg twice a day, Sirius Red) | AUC(0-10 d) (D 0-D 10) of DAI scores ([2]; sulfasalazine 50 mg/kg oral gavage twice a day, after first TNBS induction, mean ± SD) | AUC(14-24 d) (D 14-D 24) of DAI scores ([2]; sulfasalazine 50 mg/kg oral gavage twice a day, after second TNBS induction, mean ± SD) | Proliferation of connective tissue and fibrosis process in submucosa and muscularis of the colon ([2]; sulfasalazine 50 mg/kg twice a day) | CVF (%) of colon middle segment ([2]; sulfasalazine 50 mg/kg twice a day for 4 weeks, Masson staining, model control 6.39 ± 3.16, normal 0.74 ± 0.32) [%] | Inflammatory response (points), histopathological score of colon tissue [2, 3] [points] | Tissue ulcer (points), histopathological score of colon tissue [2, 3] [points] | HYP (μg/g) of colon middle segment ([2]; sulfasalazine 50 mg/kg twice a day for 4 weeks, model control 2109.99 ± 385.85, normal 1141.78 ± 106.42) [µg/g] | Change rate of AUC(0-10 d) (%) [2, 4] [%] | Change rate of AUC(14-24 d) (%) [2, 4] [%]
Cc1ccc(=O)n(-c2ccccc2)c1 [Pirfenidone, reference compound] | 5.40 ± 0.52 | 6.58 ± 2.20 | 611.19 ± 183.66 | no significant improvement |  |  |  |  |  |  |  |  | 
O=C(O)c1cc(/N=N/c2ccc(S(=O)(=O)Nc3ccccn3)cc2)ccc1O [Sulfasalazine, reference compound] |  |  |  |  | 29.80 ± 2.79 | 11.70 ± 1.69 | significant improvements and healing | 2.67 ± 1.06 | 0.60 ± 0.52 | 0.50 ± 0.53 | 1299.79 ± 161.27 | −34.86 | −51.35
